Test results from patent publication US5508417A, “Broad-spectrum isothiazole antimicrobial agents” (Rohm and Haas Company, priority 1994, dated 1996).
In brackets after ≈: the same amount, converted by molar mass. Where two headings read alike, the source gives them in different places.

Legend:
Pseudomonas aeruginosa = experiment: Minimum inhibitory concentration by two-fold serial dilution in Trypticase Soy Broth, Pseudomonas aeruginosa; format: cell-based
Method: (§1) A stock solution of the test compound was made in dimethyl sulfoxide at 13,000 ppm and then diluted 26-fold to give a starting concentration of 500 ppm. The antimicrobial activity was evaluated by a two-fold serial dilution of the starting concentration of 500 ppm, using Trypticase Soy Broth medium at pH 7.0. The minimum inhibitory concentration (MIC) of compounds 1-15 against the test organisms are shown in Table 2. |Pseudomonas aeruginosa | Psae The antimicrobial activity of these compounds was determined as described in Example 6 with only one change. The organism Saur was replaced by Rhodotorula rubra (Rrub). Rrub is a pink yeast.

Staphlococcus aureus = experiment: Minimum inhibitory concentration by two-fold serial dilution in Trypticase Soy Broth, Staphlococcus aureus; format: cell-based; conditions: Table 2, pH 7.0, read-out: Antimicrobial Activity (MIC), Saur
Method: A stock solution of the test compound was made in dimethyl sulfoxide at 13,000 ppm and then diluted 26-fold to give a starting concentration of 500 ppm. The antimicrobial activity was evaluated by a two-fold serial dilution of the starting concentration of 500 ppm, using Trypticase Soy Broth medium at pH 7.0. The minimum inhibitory concentration (MIC) of compounds 1-15 against the test organisms are shown in Table 2. |Staphlococcus aureus | Saur

Escherichia coli = experiment: Minimum inhibitory concentration by two-fold serial dilution in Trypticase Soy Broth, Escherichia coli; format: cell-based
Method: as §1, with “|Escherichia coli Ecol” for “|Pseudomonas aeruginosa | Psae”

Aspergillus niger = experiment: Minimum inhibitory concentration by two-fold serial dilution in Trypticase Soy Broth, Aspergillus niger; format: cell-based
Method: as §1, with “|Aspergillus niger Anig” for “|Pseudomonas aeruginosa | Psae”

[1] = in words; U.S. Pat. No. 3,957,808; cited from earlier work
Rhodotorula rubra = experiment: Minimum inhibitory concentration by two-fold serial dilution in Trypticase Soy Broth, Rhodotorula rubra; format: cell-based; conditions: Table 3, comparative, as described in Example 6, read-out: Comparative Antimicrobial Activity (MIC), Rrub
Method: as §1, with “The” for “The minimum inhibitory concentration (MIC) of compounds 1-15 against the test organisms are shown in Table 2. |Pseudomonas aeruginosa | Psae The”

[2] = Table 2, Trypticase Soy Broth, pH 7.0, read-out: Antimicrobial Activity (MIC), Psae
[3] = Table 2, Trypticase Soy Broth, pH 7.0, read-out: Antimicrobial Activity (MIC), Ecol
[4] = Table 2, Trypticase Soy Broth, pH 7.0, read-out: Antimicrobial Activity (MIC), Anig
[5] = Table 3, comparative, as described in Example 6, read-out: Comparative Antimicrobial Activity (MIC), Psae
[6] = Table 3, comparative, as described in Example 6, read-out: Comparative Antimicrobial Activity (MIC), Ecol
[7] = Table 3, comparative, as described in Example 6, read-out: Comparative Antimicrobial Activity (MIC), Anig

Compound	MIC (Pseudomonas aeruginosa; [2]) [µg/mL]	MIC (Staphlococcus aureus) [µg/mL]	MIC (Escherichia coli; [3]) [µg/mL]	MIC (Aspergillus niger; [4]) [µg/mL]	MIC (Pseudomonas aeruginosa; [5]) [µg/mL]	MIC (Escherichia coli; [6]) [µg/mL]	MIC (Aspergillus niger; [7]) [µg/mL]	MIC (Rhodotorula rubra) [µg/mL]	microbicidal properties [1]
CC=C(COc1cc(Cl)sn1)C(=O)OCC [Compound 3, Ethyl 3-methyl-2-(5-chloroisothiazoloxy-3-yl-methyl)acrylate]	125 (≈ 478 µM)	8 (≈ 30.6 µM)	8 (≈ 30.6 µM)	4 (≈ 15.3 µM)					
C=CCOc1ccsn1 [Compound A, reference compound]					> 500	> 500	500 (≈ 3540 µM)	> 500	useful microbicidal properties
O=c1c(COc2cc(Cl)sn2)coc2ccccc12 [Compound 13, 3-(5-Chloroisothiazoloxy-3-yl-methyl)chromone]	32 (≈ 109 µM)	8 (≈ 27.2 µM)	8 (≈ 27.2 µM)	16 (≈ 54.5 µM)					
C=C(COc1ccsn1)C(=O)OC [Compound 1, Methyl 2-(isothiazoloxy-3-yl-methyl)acrylate]	32 (≈ 161 µM)		32 (≈ 161 µM)	32 (≈ 161 µM)	32 (≈ 161 µM)	32 (≈ 161 µM)	32 (≈ 161 µM)	32 (≈ 161 µM)	
C=C(COc1cc(Cl)sn1)C(=O)NC(C)C [Compound 12, N-Isopropyl 2-(5-chloroisothiazoloxy-3-yl-methyl)acrylamide]	500 (≈ 1920 µM)	> 500	500 (≈ 1920 µM)	64 (≈ 245 µM)					
C=C(COc1cc(Cl)sn1)C(=O)O [Compound 10, 2-(5-Chloroisothiazoloxy-3-yl-methyl)acrylic acid]	> 500	64 (≈ 291 µM)	125 (≈ 569 µM)	> 500					
O=C1C=CC(=O)C(COc2ccsn2)=C1 [Compound 15, 2-(Isothiazoloxy-3-yl-methyl)-1,4-benzoquinone]	32 (≈ 145 µM)	32 (≈ 145 µM)	64 (≈ 289 µM)	16 (≈ 72.3 µM)					
C=CCOc1cc(Cl)sn1 [B, reference compound]					500 (≈ 2850 µM)	250 (≈ 1420 µM)	250 (≈ 1420 µM)	500 (≈ 2850 µM)	
O=C1C=CC(=O)C(COc2cc(Cl)sn2)=C1 [Compound 14, 2-(5-Chloroisothiazoloxy-3-yl-methyl)-1,4-benzoquinone]	64 (≈ 250 µM)	64 (≈ 250 µM)	16 (≈ 62.6 µM)	8 (≈ 31.3 µM)					
C=C(COc1cc(Cl)sn1)C(=O)OC [Compound 2, Methyl 2-(5-chloroisothiazoloxy-3-yl-methyl)acrylate]	32 (≈ 137 µM)	4 (≈ 17.1 µM)	2 (≈ 8.56 µM)	1 (≈ 4.28 µM)	32 (≈ 137 µM)	< 4	4 (≈ 17.1 µM)	8 (≈ 34.2 µM)	

The next lines start with results.

MIC (Pseudomonas aeruginosa; [2]) [µg/mL]	MIC (Staphlococcus aureus) [µg/mL]	MIC (Escherichia coli; [3]) [µg/mL]	MIC (Aspergillus niger; [4]) [µg/mL]	MIC (Pseudomonas aeruginosa; [5]) [µg/mL]	MIC (Escherichia coli; [6]) [µg/mL]	MIC (Aspergillus niger; [7]) [µg/mL]	MIC (Rhodotorula rubra) [µg/mL]	Compound	microbicidal properties [1]
> 500	> 500	> 500	500 (≈ 1670 µM)					CC(=O)C(=Cc1ccccc1)COc1nsc2c1CCC2 [Compound 11, α-(4,5-Trimethyleneisothiazoloxy-3-yl-methyl)benzalacetone]	
16 (≈ 54.5 µM)	2 (≈ 6.81 µM)	4 (≈ 13.6 µM)	1 (≈ 3.4 µM)					CC(=O)C(=Cc1ccccc1)COc1cc(Cl)sn1 [Compound 5, α-(5-Chloroisothiazoloxy-3-yl-methyl)benzalacetone]	
> 500	> 500	> 500	32 (≈ 104 µM)					C=C(COc1cc(Cl)sn1)C(=O)NCc1ccccc1 [Compound 9, N-Benzyl 2-(5-chloroisothiazoloxy-3-yl-methyl)acrylamide]	
> 500	500 (≈ 1810 µM)	> 500	500 (≈ 1810 µM)					N#CC(=Cc1ccccc1)COc1cc(Cl)sn1 [Compound 4, 2-(5-Chloroisothiazoloxy-3-yl-methyl)-3-phenylacrylonitrile]	
125 (≈ 417 µM)	125 (≈ 417 µM)	125 (≈ 417 µM)	32 (≈ 107 µM)					C=C(COc1cc(Cl)sn1)[S+]([O-])c1ccccc1 (stereo not shown) [Compound 6, 3-(5-Chloroisothiazoloxy-3-yl-methyl)-2-phenylsulfinyl-1-propene]	
32 (≈ 97 µM)	32 (≈ 97 µM)	32 (≈ 97 µM)	32 (≈ 97 µM)					C=C(C(C)Oc1cc(Cl)sn1)S(=O)(=O)c1ccccc1 (stereo not shown) [Compound 7, 3-(5-Chloroisothiazoloxy-3-yl)-2-phenylsulfonyl-1-butene]	
64 (≈ 194 µM)	32 (≈ 97 µM)	32 (≈ 97 µM)	64 (≈ 194 µM)					CC=C(COc1cc(Cl)sn1)S(=O)(=O)c1ccccc1 [Compound 8, 1-(5-Chloroisothiazoloxy-3-yl-methyl)-2-phenylsulfonyl-2-butene]	
